According to the supplement of paper PMC5752671:
Counter-ions that a name gives are not always drawn.

Tests used:
Details in all cases: 4 days
U937 [1] = experiment: area under dose-response curve (cell viability) (AUC (arbitrary, % viability x log concentration)); higher = less sensitive (more viable)
Procedure, shortened: (§1)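 Drugs were dispensed robotically, one day after plating, onto fourteen leukemia cell lines in 384-well plates coated with extracellular matrix. Each drug was tested in duplicate at eight concentrations spanning 4–5 logs inside 10^–12–10^–4 M, adjusted per drug, and CellTiter-Glo readout followed after 4 days. Duplicates were averaged and a four-parameter sigmoid was fitted. The area under that fitted curve is the reported value.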

MOLM/13 [2] = experiment: as above
Procedure, shortened: as §1

MV4.11 [3] = experiment: as above
Procedure, shortened: as §1

HL60 [4] = experiment: as above
Procedure, shortened: as §1

KASUMI1 [5] = experiment: as above
Procedure, shortened: as §1

KG1 [6] = experiment: as above
Procedure, shortened: as §1

OCI-AML3 = experiment: IC50 (cell viability) (log10 M)
Procedure, shortened: (§2)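 Listed values are the IC50, taken from fitted curves. Each is the log10 M concentration at which a four-parameter curve crosses 50% viability; where that point is not reached, the highest concentration tested is given. Fourteen leukemia cell lines on extracellular-matrix-coated 384-well plates were exposed in duplicate to eight drug concentrations within 10^–12–10^–4 M, and viability was read with CellTiter-Glo after 4 days.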

U937 [7] = experiment: IC50 (cell viability) (log10 M)
Procedure, shortened: as §2

SKM1 = experiment: IC50 (cell viability) (log10 M)
Procedure, shortened: as §2

EOL-1 = experiment: IC50 (cell viability) (log10 M)
Procedure, shortened: as §2

MOLM/13 [8] = experiment: IC50 (cell viability) (log10 M)
Procedure, shortened: as §2

MV4.11 [9] = experiment: IC50 (cell viability) (log10 M)
Procedure, shortened: as §2

NB4 = experiment: IC50 (cell viability) (log10 M)
Procedure, shortened: as §2

OCI-AML2 = experiment: IC50 (cell viability) (log10 M)
Procedure, shortened: as §2

MOLM/16 = experiment: IC50 (cell viability) (log10 M)
Procedure, shortened: as §2

HL60 [10] = experiment: IC50 (cell viability) (log10 M)
Procedure, shortened: as §2

PL-21 = experiment: IC50 (cell viability) (log10 M)
Procedure, shortened: as §2

THP-1 = experiment: IC50 (cell viability) (log10 M)
Procedure, shortened: as §2

KASUMI1 [11] = experiment: IC50 (cell viability) (log10 M)
Procedure, shortened: as §2

KG1 [12] = experiment: IC50 (cell viability) (log10 M)
Procedure, shortened: as §2

Row | IC50 (log10 M) (OCI-AML3) | IC50 (log10 M) (U937 [7]) | IC50 (log10 M) (SKM1) | IC50 (log10 M) (MOLM/13 [8]) | IC50 (log10 M) (MV4.11 [9]) | IC50 (log10 M) (OCI-AML2) | IC50 (log10 M) (MOLM/16) | IC50 (log10 M) (HL60 [10]) | IC50 (log10 M) (THP-1) | SMILES | area under dose-response curve (U937 [1]) | area under dose-response curve (MOLM/13 [2]) | area under dose-response curve (MV4.11 [3]) | area under dose-response curve (HL60 [4]) | area under dose-response curve (KASUMI1 [5]) | area under dose-response curve (KG1 [6]) | IC50 (log10 M) (EOL-1) | IC50 (log10 M) (NB4) | IC50 (log10 M) (PL-21) | IC50 (log10 M) (KASUMI1 [11]) | IC50 (log10 M) (KG1 [12])
1 | > -5 | > -5 | > -5 | > -5 | -5.24 | > -5 | > -5 | > -5 | > -5 | CS(=O)(=O)OCCCCOS(C)(=O)=O [Busulfan] | 650 | 633 | 641 | 653 | 651 | 667 | -5.23 | > -5 | > -5 | > -5 | > -5
2 | -5.49 | -5.47 | -5.41 | -5.77 | -6.08 | -5.55 | -5.71 | -5.05 | -5.37 | CCc1c2c(nc3ccc(OC(=O)N4CCC(N5CCCCC5)CC4)cc13)-c1cc3c(c(=O)n1C2)COC(=O)[C@]3(O)CC [Irinotecan HCl] | 571 | 498 | 499 | 625 | 618 | 627 | -6.09 | -5.8 | -5.44 | -5.07 | -5.43
3 | -5.41 | -5.61 | -5.49 | -5.75 | -5.68 | -5.5 | -5.86 | -5.49 | -5.41 | C[C@@H](Oc1cc(-c2cnn(C3CCNCC3)c2)cnc1N)c1c(Cl)ccc(F)c1Cl [Crizotinib] | 602 | 562 | 591 | 696 | 639 | 674 | -5.82 | -5.61 | -5.59 | -5.64 | -5.49
4 | < -8.48 | > -5 | > -5 | < -8.48 | < -8.48 | < -8.48 | > -5 | > -5 | -7.82 | CN(Cc1cnc2nc(N)nc(N)c2n1)c1ccc(C(=O)N[C@@H](CCC(=O)O)C(=O)O)cc1 [Methotrexate] | 448 | 28.8 | 49.4 | 751 | 708 | 762 | > -5 | < -8.48 | > -5 | > -5 | > -5
5 | > -5 | > -5 | > -5 | > -5 | > -5 | > -5 | > -5 | > -5 | > -5 | NC(=O)c1ccc(I)c([N+](=O)[O-])c1 [BSI-201] | 676 | 689 | 683 | 717 | 722 | 655 | > -5 | > -5 | > -5 | > -5 | > -5
6 | > -5 | -5.57 | > -5 | > -5 | -5.01 | > -5 | -5.35 | > -5 | > -5 | N#CC[C@H](C1CCCC1)n1cc(-c2ncnc3[nH]ccc23)cn1 | 573 | 652 | 649 | 697 | 681 | 631 | -5.11 | > -5 | > -5 | > -5 | -5.38
7 | > -5 | -7.7 | -5.4 | -5.39 | -6 | -5.02 | -5.83 | > -5 | > -5 | CO[C@H]1C[C@@H]2CC[C@@H](C)[C@@](O)(O2)C(=O)C(=O)N2CCCC[C@H]2C(=O)O[C@H]([C@H](C)C[C@@H]2CC[C@@H](OCCO)[C@H](OC)C2)CC(=O)[C@H](C)/C=C(\C)[C@@H](O)[C@@H](OC)C(=O)[C@H](C)C[C@H](C)/C=C/C=C/C=C/1C [Everolimus] | 313 | 446 | 392 | 568 | 471 | 501 | -8.2 | > -5 | -5.1 | > -5 | > -5

The remaining lines, values behind:

Row | SMILES | IC50 (log10 M) (OCI-AML3) | IC50 (log10 M) (U937 [7]) | IC50 (log10 M) (SKM1) | IC50 (log10 M) (MOLM/13 [8]) | IC50 (log10 M) (MV4.11 [9]) | IC50 (log10 M) (OCI-AML2) | IC50 (log10 M) (MOLM/16) | IC50 (log10 M) (HL60 [10]) | IC50 (log10 M) (THP-1) | area under dose-response curve (U937 [1]) | area under dose-response curve (MOLM/13 [2]) | area under dose-response curve (MV4.11 [3]) | area under dose-response curve (HL60 [4]) | area under dose-response curve (KASUMI1 [5]) | area under dose-response curve (KG1 [6]) | IC50 (log10 M) (EOL-1) | IC50 (log10 M) (NB4) | IC50 (log10 M) (PL-21) | IC50 (log10 M) (KASUMI1 [11]) | IC50 (log10 M) (KG1 [12])
8 | CS(=O)(=O)CCNCc1ccc(-c2ccc3ncnc(Nc4ccc(OCc5cccc(F)c5)c(Cl)c4)c3c2)o1 [Lapatinib] | -5.42 | -5.45 | -5.07 | -5.41 | -5.4 | -5.37 | -5.45 | -5.05 | -5.01 | 623 | 649 | 630 | 747 | 703 | 765 | -5.04 | -5.37 | -5.4 | -5.15 | -5.01
9 | CC(C)C[C@H](NC(=O)[C@H](Cc1ccccc1)NC(=O)c1cnccn1)B(O)O [Bortezomib] | -8.3 | -8.32 | -8.6 | -8.37 | -8.1 | -8.06 | -8.07 | -8.05 | -8.06 | 298 | 304 | 338 | 334 | 338 | 330 | -8.29 | -8.38 | -8.04 | -8.06 | -8.25
10 | CC1=C(/C=C/C(C)=C/C=C/C(C)=C/C(=O)Nc2ccc(O)cc2)C(C)(C)CCC1 [Fenretinide] | -5.57 | -5.82 | -5.32 | -5.29 | -5.75 | -5.5 | -5.9 | -5.46 | -5.28 | 569 | 618 | 545 | 691 | 691 | 618 | -5.86 | -5.62 | -5.44 | -5.47 | -5.82
11 | NC(=O)[C@@H](CCC(F)(F)F)N(Cc1ccc(-c2ncon2)cc1F)S(=O)(=O)c1ccc(Cl)cc1 | > -5 | > -5 | > -5 | > -5 | > -5 | > -5 | > -5 | > -5 | > -5 | 693 | 693 | 711 | 692 | 634 | 616 | > -5 | > -5 | > -5 | > -5 | > -5
12 | Cc1ccccc1-n1c(Cn2cnc3c(N)ncnc32)nc2cccc(C)c2c1=O | > -5 | > -5 | > -5 | > -5 | > -5 | > -5 | > -5 | > -5 | > -5 | 641 | 659 | 650 | 719 | 665 | 718 | > -5 | > -5 | > -5 | > -5 | > -5
13 | CO[C@@]12[C@H](COC(N)=O)C3=C(C(=O)C(C)=C(N)C3=O)N1C[C@@H]1N[C@@H]12 [Mitomycin C] | -7.53 | -7.18 | -7.15 | -7.55 | < -8.48 | < -8.48 | -7.38 | -6.97 | -7.5 | 369 | 322 | 181 | 419 | 453 | 471 | -8.21 | -7.79 | -6.12 | -6.29 | -6.54
14 | CC[C@H](Nc1ncnc2[nH]cnc12)c1nc2cccc(F)c2c(=O)n1-c1ccccc1 [CAL-101] | > -5 | > -5 | > -5 | > -5 | -5.3 | > -5 | -5.22 | > -5 | > -5 | 597 | 662 | 577 | 644 | 552 | 653 | -5.16 | > -5 | > -5 | -5.08 | > -5
15 | CS(=O)(=O)c1ccc(C(=O)Nc2ccc(Cl)c(-c3ccccn3)c2)c(Cl)c1 [GDC-0449] | > -5 | > -5 | > -5 | > -5 | > -5 | > -5 | > -5 | > -5 | > -5 | 662 | 693 | 680 | 747 | 730 | 754 | > -5 | > -5 | > -5 | > -5 | > -5
16 | N.N.[Cl][Pt][Cl] [Cisplatin] | > -5 | > -5 | > -5 | > -5 | > -5 | > -5 | > -5 | > -5 | > -5 | 685 | 684 | 719 | 764 | 731 | 760 | > -5 | > -5 | > -5 | > -5 | > -5
17 | Cc1ccc(C(=O)Nc2ccc(CN3CCN(C)CC3)c(C(F)(F)F)c2)cc1C#Cc1cnc2cccnn12 | -6.28 | -6.07 | -6.04 | -8.29 | -8.82 | -6.41 | -6.82 | -6.17 | -6.06 | 527 | 266 | 224 | 593 | 433 | 363 | < -9.34 | -6.12 | -6.11 | -6.5 | -7.98
18 | Nc1ccn([C@@H]2O[C@H](CO)[C@@H](O)[C@@H]2O)c(=O)n1 [Cytarabine HCl] | -6.73 | < -7.34 | -6.81 | < -7.34 | -7.21 | < -7.34 | -7.19 | -7.08 | -6.53 | 154 | 296 | 378 | 410 | 383 | 386 | < -7.34 | < -7.34 | < -7.34 | < -7.34 | -7.29
19 | Cc1c(C(=O)Nc2ccc(N3C[C@@H](C)O[C@@H](C)C3)nc2)cccc1-c1ccc(OC(F)(F)F)cc1 [NVP-LDE-225] | > -5 | > -5 | > -5 | > -5 | > -5 | > -5 | > -5 | > -5 | > -5 | 673 | 643 | 656 | 685 | 658 | 675 | -5.16 | > -5 | > -5 | > -5 | > -5
20 | Cc1cn(-c2cc(NC(=O)c3ccc(C)c(Nc4nccc(-c5cccnc5)n4)c3)cc(C(F)(F)F)c2)cn1 [Nilotinib] | -5.4 | -5.57 | -5.19 | -5.25 | -5.28 | -5.44 | -5.38 | > -5 | -5.09 | 604 | 604 | 601 | 632 | 458 | 624 | -7.48 | > -5 | -5.26 | -5.59 | > -5
21 | Nc1ncn([C@H]2C[C@H](O)[C@@H](CO)O2)c(=O)n1 [Decitabine] | -6.05 | -6.97 | -5.53 | < -8.34 | -5.06 | -7.26 | < -8.34 | -5.1 | -5.82 | 436 | 235 | 303 | 582 | 516 | 516 | < -8.34 | -8.3 | -6.43 | -5.3 | -6.39
